Reference: ChEMBL document CHEMBL1914338, “Tricyclic series of heat shock protein 90 (Hsp90) inhibitors part I: discovery of tricyclic imidazo[4,5-c]pyridines as potent inhibitors of the Hsp90 molecular chaperone” (J Med Chem, 2011)

Tests used:
[1] = biological target: T1, Heat shock protein HSP 90-beta (Homo sapiens, UniProt P08238)
Description: Inhibition of human Hsp90beta after overnight incubation by fluorescence polarization assay

[2] = biological target: T1, Heat shock protein HSP 90-beta; remark: listed apart in the source
Description: Inhibition of HSP90beta in human SKBR3 cells assessed as down regulation of HER2 expression levels after 24 hrs by FACS analysis

P388 [3] = experiment: Antitumor activity in mouse P388 cells xenografted in B6D2F1 mouse assessed as median day of death at 80 mg/kg/day, ip for 4 days (reference value: 10 days); type: functional; conditions: route intraperitoneal
P388 [4] = experiment: Antitumor activity in mouse P388 cells xenografted in B6D2F1 mouse assessed as increase in mouse life span at 80 mg/kg/day, ip for 4 days relative to control; type: functional; conditions: route intraperitoneal
[5] = biological target: T1, Heat shock protein HSP 90-beta; remark: listed apart in the source
Description: Binding affinity to human Hsp90beta assessed as association constant after overnight incubation by fluorescence polarization assay

T1 sequence (P08238 whole entry): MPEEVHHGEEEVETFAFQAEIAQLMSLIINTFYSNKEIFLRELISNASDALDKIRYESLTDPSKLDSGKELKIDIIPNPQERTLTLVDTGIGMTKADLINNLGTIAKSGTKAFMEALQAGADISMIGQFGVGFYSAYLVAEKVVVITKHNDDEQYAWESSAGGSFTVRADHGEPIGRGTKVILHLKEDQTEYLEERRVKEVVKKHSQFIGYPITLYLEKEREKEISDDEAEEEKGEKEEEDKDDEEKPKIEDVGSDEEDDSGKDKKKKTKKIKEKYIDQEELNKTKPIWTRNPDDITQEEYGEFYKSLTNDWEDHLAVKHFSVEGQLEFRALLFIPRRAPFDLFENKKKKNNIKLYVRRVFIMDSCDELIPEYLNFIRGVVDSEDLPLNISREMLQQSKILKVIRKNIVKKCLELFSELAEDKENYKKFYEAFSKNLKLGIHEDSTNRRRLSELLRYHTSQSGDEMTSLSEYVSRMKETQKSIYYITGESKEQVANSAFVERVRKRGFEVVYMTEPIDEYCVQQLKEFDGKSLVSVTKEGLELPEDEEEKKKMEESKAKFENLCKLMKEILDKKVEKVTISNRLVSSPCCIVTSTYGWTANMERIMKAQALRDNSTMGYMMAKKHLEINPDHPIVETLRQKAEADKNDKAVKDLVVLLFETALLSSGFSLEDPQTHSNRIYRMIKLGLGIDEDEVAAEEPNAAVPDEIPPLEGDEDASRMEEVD

Compound	IC50 [2] [µM]	other results
Cc1onc(-c2ccc(O)cc2O)c1-c1ccccc1		IC50 [1]: 7.6 µM
O=C1c2ccccc2-c2c1cccc2-c1nc2cnccc2[nH]1	> 50	
NC(=O)CCC(=O)NC1c2ccccc2-c2c(-c3nc4cnccc4[nH]3)cccc21 (racemic)	50	
O=C(NC1c2ccccc2-c2c(-c3nc4ccncc4[nH]3)cccc21)c1ccncc1 (racemic)	1.3	
C=CCNC1=C2C[C@@H](C)C[C@H](OC)[C@H](O)[C@@H](C)/C=C(\C)[C@H](OC(N)=O)[C@@H](OC)/C=C\C=C(/C)C(=O)NC(=CC1=O)C2=O [TANESPIMYCIN]		Time (P388 [3]): 13 days; Activity (P388 [4]): 30%; Ka [5]: 1.2 ×10⁴ /M/s

Continued, in another order:

IC50 [2] [µM]	Compound	other results
> 50	O=C1c2ccccc2C2=C(c3nc4ccncc4[nH]3)CCCN12	
1.3	O=C(NC1c2ccccc2-c2c(-c3nc4ccccc4[nH]3)cccc21)c1cccc2ncccc12 (racemic)	
0.9	Nc1cc(C(=O)NC2c3ccccc3-c3c(-c4nc5ccncc5[nH]4)cccc32)ccn1 (racemic)	
